Key:
mouse [1] = conditions: Combined chronic toxicity/carcinogenicity, cd1, Oral, Feed, dose end: 78 week, group: systemic
rat [2] = conditions: Carcinogenicity, fischer, Oral, Feed, dose end: 107 week, group: systemic
rat [3] = conditions: Combined chronic toxicity/carcinogenicity, sprague dawley, Oral, [Not Specified], dose end: 24 month, group: systemic
mouse [4] = conditions: Carcinogenicity, b6c3f1, Oral, Feed, dose end: 112 week, group: systemic
dog = conditions: Chronic toxicity; beagle; Oral; Feed; dose end: 12 month; group: systemic; systemic / clinical chemistry / alkaline phosphatase (alp/alk) / alkaline phosphatase (alp/alk) + systemic / in life observation / body …
rat [5] = conditions: Subchronic oral toxicity in rodents, fischer, Inhalation, Whole-Body, dose end: 13 week, group: systemic
rat [6] = conditions: Prenatal developmental toxicity study; fischer; Inhalation; Whole-Body; dose end: 15 GD; group: maternal; systemic / in life observation / body weight / body weight + systemic / in life observation / body weight / body weight gain + systemic / in…
rabbit [7] = conditions: Prenatal developmental toxicity study; new zealand white; Inhalation; Whole-Body; dose end: 18 GD; group: maternal; systemic / in life observation / body weight / body weight gain
rat [8] = conditions: Subchronic oral toxicity in rodents, sprague dawley, Feed, dose end: 13 week, group: systemic, systemic / clinical chemistry / calcium / calcium + systemic / pathology microscopic / liver / accentuated lobular pattern + systemic / …
mouse [9] = conditions: Multigenerational reproductive toxicity study, cd1, Oral, Feed, dose end: 2 generation, group: offspring
rat [10] = conditions: Subchronic dermal toxicity, sprague dawley, Topical, dose end: 90 day, group: systemic, systemic / in life observation / clinical signs / erythema + systemic / in life observation / clinical signs / scabbing + systemic / …
rat [11] = conditions: Prenatal developmental toxicity study, sprague dawley, Oral, Gavage/Intubation, dose end: 15 GD
rat [12] = conditions: Subchronic inhalation toxicity, sprague dawley, Nose-Only, dose end: 13 week, group: systemic
rat [13] = conditions: Multigenerational reproductive toxicity study, wistar, Oral, Feed, dose end: 2 generation
rabbit [14] = conditions: Prenatal developmental toxicity study, new zealand white, Oral, Gavage/Intubation, dose end: 19 GD
rat [15] = conditions: Subchronic oral toxicity in rodents, fischer, Feed, dose end: 13 week, group: systemic, systemic / clinical chemistry / thyroxine (t4) / thyroxine (t4), total + systemic / in life observation / body weight / body weight + …
rat [16] = conditions: Prenatal developmental toxicity study, sprague dawley, Oral, Gavage/Intubation, dose end: 15 GD; remark: listed apart in the source
rat [17] = conditions: Sub-acute repeat dose toxicity, other, Inhalation, Nose-Only, dose end: 14 day, group: systemic
rat [18] = conditions: Prenatal developmental toxicity study, other, Inhalation, Nose-Only, dose end: 16 GD
rabbit [19] = conditions: Prenatal developmental toxicity study, new zealand white, Oral, Gavage/Intubation, dose end: 19 GD; remark: listed apart in the source
mouse [20] = conditions: Prenatal developmental toxicity study, cd1, Oral, Gavage/Intubation, dose end: 15 GD
[21] = systemic / organ weight / liver / relative to body weight
[22] = systemic / in life observation / body weight / body weight
[23] = systemic / clinical chemistry / cholesterol / cholesterol + systemic / organ weight / liver / absolute + systemic / organ weight / liver / …
[24] = systemic / in life observation / body weight / body weight + systemic / in life observation / clinical signs / alopecia
[25] = systemic / clinical chemistry / alanine aminotransferase (alt/sgpt) / alanine aminotransferase (alt/sgpt) + systemic / clinical chemistry / …
[26] = systemic / in life observation / clinical signs / urogenital staining + systemic / organ weight / kidney / relative to body weight
[27] = systemic / organ weight / kidney / relative to body weight + systemic / organ weight / liver / relative to body weight + systemic / organ …
[28] = group: developmental, developmental / developmental malformation / kidney / dilatation + developmental / developmental malformation / ureter / distended
[29] = group: maternal, systemic / in life observation / body weight / body weight
[30] = systemic / in life observation / body weight / body weight + systemic / in life observation / clinical signs / [other] + systemic / in life …
[31] = group: offspring, systemic / in life observation / body weight / offspring (pup) weight + systemic / organ weight / spleen / absolute + systemic / organ …
[32] = group: parental, systemic / pathology microscopic / stomach / hyperkeratosis + systemic / pathology microscopic / stomach / hyperplasia + systemic / …
[33] = group: developmental, systemic / in life observation / body weight / fetal weight
[34] = group: maternal, reproductive / reproductive performance / aborted / aborted + systemic / in life observation / body weight / body weight + systemic / in …
[35] = group: developmental, developmental / developmental malformation / bone / full supernumerary + developmental / developmental malformation / bone / incomplete …
[36] = group: maternal, systemic / hematology / erythrocyte (rbc) count differential / erythrocyte (rbc) + systemic / hematology / reticulocyte / reticulocyte + …
[37] = systemic / hematology / leukocyte (wbc) count differential / leukocyte (wbc) + systemic / in life observation / body weight / body weight + …
[38] = group: developmental, developmental / developmental malformation / bone / incomplete ossification + developmental / developmental malformation / bone / short …
[39] = group: maternal, reproductive / reproductive performance / resorptions / resorptions + systemic / in life observation / body weight / body weight + systemic…
[40] = group: developmental, developmental / developmental malformation / bone / fused + developmental / developmental malformation / kidney / hydronephrosis + …
[41] = group: maternal, reproductive / reproductive performance / resorptions / resorptions + systemic / in life observation / body weight / body weight gain + …
[42] = group: developmental, developmental / developmental malformation / bone / [other] + developmental / developmental malformation / bone / absent + developmental / …
[43] = group: maternal, reproductive / reproductive performance / postimplantation loss / postimplantation loss + reproductive / reproductive performance / …

## CCCCOCCOCCOCc1cc2c(cc1CCC)OCO2 [Piperonyl butoxide]
Mouse [1]; [21]
  LEL: 30 mg/kg/day
  NEL: < 30 mg/kg/day
Mouse [1]; systemic / organ weight / liver / relative to body weight + systemic / pathology microscopic / liver / adenoma
  NOAEL: 30 mg/kg/day
Mouse [1]; systemic / organ weight / liver / relative to body weight + systemic / pathology microscopic / liver / hypertrophy
  LOAEL: 100 mg/kg/day
Rat [2]; [22]
  LEL: 250 mg/kg/day
  LOAEL: 500 mg/kg/day
  NEL: < 250 mg/kg/day
Rat [2]; systemic / in life observation / body weight / body weight + systemic / pathology gross / full gross necropsy / lymphoma nos
  NOAEL: 250 mg/kg/day
Rat [3]; [23]
  LOAEL: 100 mg/kg/day
  NEL: 15 mg/kg/day
  NOAEL: 30 mg/kg/day
Rat [3]; systemic / organ weight / liver / absolute + systemic / organ weight / liver / relative to brain weight + systemic / pathology gross / …
  LEL: 30 mg/kg/day
Mouse [4]; [22]
  LOAEL: 155 mg/kg/day
  NOAEL: < 155 mg/kg/day
Mouse [4]; [24]
  LEL: 155 mg/kg/day
  NEL: < 155 mg/kg/day
dog
  LEL: 15.5 mg/kg/day
  LOAEL: 15.5 mg/kg/day
  NEL: 2.9 mg/kg/day
  NOAEL: 2.9 mg/kg/day

## CCCCCCOCCO [2-(Hexyloxy)ethanol]
Rat [5]; [25]
  LOAEL: > 71 ppm
  NOAEL: ≥ 71 ppm
Rat [5]; [26]
  LEL: 20 ppm
  NEL: < 20 ppm
Rat [6]
  LEL: 79.2 ppm
  LOAEL: > 79.2 ppm
  NEL: 41.1 ppm
  NOAEL: ≥ 79.2 ppm
Rabbit [7]
  LEL: 79.2 ppm
  LOAEL: > 79.2 ppm
  NEL: 41.1 ppm
  NOAEL: ≥ 79.2 ppm

## CCCCCCCCOC(=O)c1ccccc1C(=O)OCCCCCCCC [Dioctyl phthalate]
Rat [8]
  LEL: 350 mg/kg/day
  LOAEL: > 350 mg/kg/day
  NEL: 36.8 mg/kg/day
  NOAEL: ≥ 350 mg/kg/day
Mouse [9]; systemic / organ weight / kidney / relative to body weight + systemic / organ weight / liver / relative to body weight
  NEL: 3600 mg/kg/day
Mouse [9]; [27]
  LEL: 7500 mg/kg/day
  LOAEL: > 7500 mg/kg/day
  NOAEL: ≥ 7500 mg/kg/day

## CCN1CN(CC)CN(CC)C1 [1,3,5-Triethylhexahydro-s-triazine]
Rat [10]
  LEL: 10 mg/kg/day
  LOAEL: 10 mg/kg/day
  NEL: < 10 mg/kg/day
  NOAEL: < 10 mg/kg/day
Rat [11]; [28]
  LEL: 150 mg/kg/day
  LOAEL: 150 mg/kg/day
  NEL: 75 mg/kg/day
  NOAEL: 75 mg/kg/day
Rat [11]; [29]
  LEL: 150 mg/kg/day
  LOAEL: 150 mg/kg/day
  NEL: 75 mg/kg/day
  NOAEL: 75 mg/kg/day

## CCCCCCCCn1sccc1=O [Octhilinone]
Rat [12]; [30]
  LEL: 0.73 ppm
  LOAEL: 0.73 ppm
  NOAEL: 0.0733 ppm
Rat [12]; systemic / in life observation / clinical signs / respiration (rales) + systemic / pathology microscopic / nose / [other]
  NEL: 0.0733 ppm
Rat [13]; [31]
  LOAEL: 111 mg/kg/day
  NEL: 14 mg/kg/day
  NOAEL: 45 mg/kg/day
Rat [13]; group: offspring, systemic / organ weight / spleen / relative to body weight
  LEL: 45 mg/kg/day
Rat [13]; group: parental, systemic / pathology microscopic / stomach / hyperkeratosis + systemic / pathology microscopic / stomach / hyperplasia
  LOAEL: 96 mg/kg/day
Rat [13]; [32]
  LEL: 96 mg/kg/day
  NEL: 43 mg/kg/day
  NOAEL: 43 mg/kg/day
Rabbit [14]; [33]
  LEL: 80 mg/kg/day
  LOAEL: 80 mg/kg/day
  NEL: 20 mg/kg/day
  NOAEL: 20 mg/kg/day
Rabbit [14]; [34]
  LEL: 80 mg/kg/day
  LOAEL: 80 mg/kg/day
  NEL: 20 mg/kg/day
  NOAEL: 20 mg/kg/day

## CCCCOCCOC(=O)COc1ccc(Cl)cc1Cl [2,4-D-Butotyl]
Rat [15]
  LEL: 145 mg/kg/day
  LOAEL: 145 mg/kg/day
  NEL: 22 mg/kg/day
  NOAEL: 22 mg/kg/day
Rat [16]; [35]
  LEL: 185 mg/kg/day
  LOAEL: 185 mg/kg/day
  NEL: 75 mg/kg/day
  NOAEL: 75 mg/kg/day
Rat [16]; [36]
  LEL: 185 mg/kg/day
  LOAEL: 185 mg/kg/day
  NEL: 75 mg/kg/day
  NOAEL: 75 mg/kg/day

## COCCOCCOC [Bis(2-methoxyethyl) ether]
Rat [17]; [25]
  LOAEL: > 1000 ppm
  NOAEL: ≥ 1000 ppm
Rat [17]; [37]
  LEL: 100 ppm
  NEL: < 100 ppm
Rat [18]; [38]
  LEL: 25 ppm
  LOAEL: > 400 ppm
  NEL: < 25 ppm
  NOAEL: ≥ 400 ppm
Rat [18]; [39]
  LOAEL: > 400 ppm
  NEL: 25 ppm
  NOAEL: ≥ 400 ppm
Rat [18]; group: maternal, systemic / in life observation / food consumption / food consumption + systemic / organ weight / liver / absolute + systemic / organ weight…
  LEL: 100 ppm
Rabbit [19]; [40]
  LOAEL: > 175 mg/kg/day
  NEL: 25 mg/kg/day
  NOAEL: ≥ 175 mg/kg/day
Rabbit [19]; group: developmental, developmental / developmental malformation / limb / [other]
  LEL: 50 mg/kg/day
Rabbit [19]; [41]
  LOAEL: > 175 mg/kg/day
  NEL: 25 mg/kg/day
  NOAEL: ≥ 175 mg/kg/day
Rabbit [19]; group: maternal, systemic / in life observation / body weight / body weight gain
  LEL: 50 mg/kg/day
Mouse [20]; [42]
  LOAEL: > 500 mg/kg/day
  NEL: 62.5 mg/kg/day
  NOAEL: ≥ 500 mg/kg/day
Mouse [20]; [33]
  LEL: 125 mg/kg/day
Mouse [20]; [43]
  LOAEL: > 500 mg/kg/day
  NEL: 125 mg/kg/day
  NOAEL: ≥ 500 mg/kg/day
Mouse [20]; group: maternal, reproductive / reproductive performance / postimplantation loss / postimplantation loss + systemic / in life observation / body weight / …
  LEL: 250 mg/kg/day

From EPA's ToxRefDB 2
